PMC6318274, “Lattice engineering enables definition of molecular features allowing for potent small-molecule inhibition of HIV-1 entry” (Nature Communications, 2019)
“And” between values parts separate entries of the source, which are not always exact repeats. Equal entries are not always repeated. Where two headings read alike, the source gives them in different places.

Test system: HIV-1 Env-pseudoviruses (208-strain panel)
Assay: microbe, parasite or virus in culture
Type: cell-based
Set-up: Total Neutralized / % Neutralized: concentration or dose not given beside the values
Protocol: Neutralization was measured using single-round-of-infection HIV-1 Env-pseudoviruses and TZM-bl target cells (ARP Cat No. #8129)[44],[45]. Compounds were prepared at 400 μM with 4% DMSO (dimethyl sulfoxide) in PBS (phosphate-buffered saline) and diluted 20 times as the starting concentration for serial dilution in the neutralization assays. […] After incubation at 37 °C for 2 days, infection of target cells was measured by luciferase activity. Neutralization curves were fit by nonlinear regression using a five-parameter hill slope equation[45].

With `COc1cnc(-c2csc(C(=O)NCCO)n2)c2[nH]cc(C(=O)C(=O)N3CCC(=C(C#N)c4ccccc4)CC3)c12` [BMS-818251] the “% Neutralized” value was 99% and 98% and 93% and 83% and 75%, the “Total Neutralized” value was 205 and 204 and 194 and 173 and 155 and the IC50 (Human immunodeficiency virus 1, BAL, TZM-bl, BaL.26, clade B, read-out: IC50) was 0.1 nM. The IC50 (Human immunodeficiency virus 1, HXB2, TZM-bl, HXB2.DG, clade B, read-out: IC50) was 0.1 nM, the IC50 (Human immunodeficiency virus 1, SC422, TZM-bl, SC422.8, clade B, read-out: IC50) was 0.2 nM and the IC50 (Human immunodeficiency virus 1, TZM-bl) was 0.3 nM. For the same molecule, the IC50 (Human immunodeficiency virus 1, TZM-bl, 45_01dG5, clade B, read-out: IC50) was 0.2 nM, the IC50 (Human immunodeficiency virus 1, TZM-bl, 0077.v1.c16, clade C, read-out: IC50) was 0.2 nM and the IC50 (Human immunodeficiency virus 1, TZM-bl, 89.6.DG, clade B, read-out: IC50) was 0.1 nM. It also gave an IC50 (Human immunodeficiency virus 1, TZM-bl, 96ZM651.02, clade C, read-out: IC50) of 0.1 nM, an IC50 (Human immunodeficiency virus 1, TZM-bl, 208-strain panel, read-out: Geometric mean IC50) of 1.5 nM and an IC50 (Human immunodeficiency virus 1, TZM-bl, 208-strain panel, read-out: Median IC50) of 0.5 nM. The IC50 (Human immunodeficiency virus 1, TZM-bl, 235-47, clade AG, read-out: IC50) was 0.1 nM, the IC50 (Human immunodeficiency virus 1, TZM-bl, 242-14 (Clade AG), read-out: IC50) was 0.5 nM and the IC50 (Human immunodeficiency virus 1, TZM-bl, 246-F3.C10.2, clade AC, read-out: IC50) was 2 nM. It also gave an IC50 (Human immunodeficiency virus 1, TZM-bl, 247-23 (Clade D), read-out: IC50) of 0.5 nM, an IC50 (Human immunodeficiency virus 1, TZM-bl, 0260.v5.c36, clade A, read-out: IC50) of 1 nM and an IC50 (Human immunodeficiency virus 1, TZM-bl, 263-8, clade AG, read-out: IC50) of 0.1 nM. For the same molecule, the IC50 (Human immunodeficiency virus 1, TZM-bl, 269-12, clade AG, read-out: IC50) was 662 nM, the IC50 (Human immunodeficiency virus 1, TZM-bl, 271-11, clade AG, read-out: IC50) was 1240 nM and the IC50 (Human immunodeficiency virus 1, TZM-bl, 286.36, clade C, read-out: IC50) was 0.1 nM. It also gave an IC50 (Human immunodeficiency virus 1, TZM-bl, 288.38, clade C, read-out: IC50) of 0.2 nM, an IC50 (Human immunodeficiency virus 1, TZM-bl, 0330.v4.c3 (Clade A), read-out: IC50) of 10 nM and an IC50 (Human immunodeficiency virus 1, TZM-bl, 398-F1.F6.20, clade A, read-out: IC50) of 11 nM. For the same molecule, the IC50 (Human immunodeficiency virus 1, TZM-bl, 426c (Clade C), read-out: IC50) was 0.6 nM, the IC50 (Human immunodeficiency virus 1, TZM-bl, 0439.v5.c1, clade A, read-out: IC50) was 0.6 nM and the IC50 (Human immunodeficiency virus 1, TZM-bl, 0815.v3.c3, clade ACD, read-out: IC50) was 0.1 nM. It also gave an IC50 (Human immunodeficiency virus 1, TZM-bl, 00836-2.5, clade C, read-out: IC50) of 12200 nM, an IC50 (Human immunodeficiency virus 1, TZM-bl, 0921.v2.c14, clade C, read-out: IC50) of 0.1 nM and an IC50 (Human immunodeficiency virus 1, TZM-bl, 928-28, clade AG, read-out: IC50) of 46 nM. The IC50 (Human immunodeficiency virus 1, TZM-bl, 001428-2.42, clade C, read-out: IC50) was 14 nM, the IC50 (Human immunodeficiency virus 1, TZM-bl, 3168.v4.c10, clade C, read-out: IC50) was 0.1 nM and the IC50 (Human immunodeficiency virus 1, TZM-bl, 3301.v1.c24, clade AC, read-out: IC50) was 5 nM. For the same molecule, the IC50 (Human immunodeficiency virus 1, TZM-bl, 3326.v4.c3, clade CD, read-out: IC50) was 0.1 nM, the IC50 (Human immunodeficiency virus 1, TZM-bl, 3337.v2.c6, clade CD, read-out: IC50) was 0.2 nM and the IC50 (Human immunodeficiency virus 1, TZM-bl, 3365.v2.c20, clade A, read-out: IC50) was 90 nM. For the same molecule, the IC50 (Human immunodeficiency virus 1, TZM-bl, 3415.v1.c1, clade A, read-out: IC50) was 0.4 nM, the IC50 (Human immunodeficiency virus 1, TZM-bl, 3468.v1.c12, clade AD, read-out: IC50) was 0.5 nM and the IC50 (Human immunodeficiency virus 1, TZM-bl, 3589.v1.c4, clade AC, read-out: IC50) was 0.2 nM. It also gave an IC50 (Human immunodeficiency virus 1, TZM-bl, 3637.v5.c3, clade C, read-out: IC50) of 0.2 nM, an IC50 (Human immunodeficiency virus 1, TZM-bl, 3718.v3.c11, clade A, read-out: IC50) of 0.7 nM and an IC50 (Human immunodeficiency virus 1, TZM-bl, 3817.v2.c59, clade CD, read-out: IC50) of 8 nM. The IC50 (Human immunodeficiency virus 1, TZM-bl, 3873.v1.c24, clade C, read-out: IC50) was 0.1 nM, the IC50 (Human immunodeficiency virus 1, TZM-bl, 3988.25, clade B, read-out: IC50) was 0.1 nM and the IC50 (Human immunodeficiency virus 1, TZM-bl, 5768.04, clade B, read-out: IC50) was 0.3 nM. It also gave an IC50 (Human immunodeficiency virus 1, TZM-bl, 6095.v1.c10, clade ACD, read-out: IC50) of 0.1 nM, an IC50 (Human immunodeficiency virus 1, TZM-bl, 6101.10, clade B, read-out: IC50) of 0.1 nM and an IC50 (Human immunodeficiency virus 1, TZM-bl, 6322.v4.c1, clade C, read-out: IC50) of 42 nM. It also gave an IC50 (Human immunodeficiency virus 1, TZM-bl, 6405.v4.c34, clade D, read-out: IC50) of 257 nM, an IC50 (Human immunodeficiency virus 1, TZM-bl, 6471.v1.c16, clade C, read-out: IC50) of 0.1 nM and an IC50 (Human immunodeficiency virus 1, TZM-bl, 6540.v4.c1, clade AC, read-out: IC50) of 2 nM. For the same molecule, the IC50 (Human immunodeficiency virus 1, TZM-bl, 6545.v4.c1, clade AC, read-out: IC50) was 0.5 nM, the IC50 (Human immunodeficiency virus 1, TZM-bl, 6631.v3.c10, clade C, read-out: IC50) was 0.1 nM and the IC50 (Human immunodeficiency virus 1, TZM-bl, 6644.v2.c33, clade C, read-out: IC50) was 2 nM. For the same molecule, the IC50 (Human immunodeficiency virus 1, TZM-bl, 6785.v5.c14, clade C, read-out: IC50) was 6 nM, the IC50 (Human immunodeficiency virus 1, TZM-bl, 6838.v1.c35, clade C, read-out: IC50) was 0.4 nM and the IC50 (Human immunodeficiency virus 1, TZM-bl, 7165.18 (Clade B), read-out: IC50) was 11 nM. The IC50 (Human immunodeficiency virus 1, TZM-bl, 0013095-2.11, clade C, read-out: IC50) was 0.1 nM, the IC50 (Human immunodeficiency virus 1, TZM-bl, 16055-2.3, clade C, read-out: IC50) was 0.3 nM and the IC50 (Human immunodeficiency virus 1, TZM-bl, 16845-2.22, clade C, read-out: IC50) was 0.1 nM. For the same molecule, the IC50 (Human immunodeficiency virus 1, TZM-bl, 16936-2.21, clade C, read-out: IC50) was 0.4 nM, the IC50 (Human immunodeficiency virus 1, TZM-bl, 25710-2.43, clade C, read-out: IC50) was 0.1 nM and the IC50 (Human immunodeficiency virus 1, TZM-bl, 25711-2.4, clade C, read-out: IC50) was 1 nM. It also gave an IC50 (Human immunodeficiency virus 1, TZM-bl, 25925-2.22, clade C, read-out: IC50) of 0.1 nM, an IC50 (Human immunodeficiency virus 1, TZM-bl, 26191-2.48, clade C, read-out: IC50) of 0.1 nM and an IC50 (Human immunodeficiency virus 1, TZM-bl, 57128.vrc15, clade D, read-out: IC50) of 0.6 nM. It also gave an IC50 (Human immunodeficiency virus 1, TZM-bl, 191821.E6.1, clade D, read-out: IC50) of 0.1 nM, an IC50 (Human immunodeficiency virus 1, TZM-bl, 231965.c01, clade D, read-out: IC50) of 0.1 nM and an IC50 (Human immunodeficiency virus 1, TZM-bl, 620345.c1, clade AE, read-out: IC50) of 49 nM. The IC50 (Human immunodeficiency virus 1, TZM-bl, A07412M1.vrc12, clade D, read-out: IC50) was 1 nM, the IC50 (Human immunodeficiency virus 1, TZM-bl, AC10.29, clade B, read-out: IC50) was 0.2 nM and the IC50 (Human immunodeficiency virus 1, TZM-bl, ADA.DG, clade B, read-out: IC50) was 0.1 nM. The IC50 (Human immunodeficiency virus 1, TZM-bl, BB201.B42, clade A, read-out: IC50) was 4 nM, the IC50 (Human immunodeficiency virus 1, TZM-bl, BB539.2B13, clade A, read-out: IC50) was 0.2 nM and the IC50 (Human immunodeficiency virus 1, TZM-bl, BG1168.01, clade B, read-out: IC50) was 1 nM. For the same molecule, the IC50 (Human immunodeficiency virus 1, TZM-bl, BI369.9A, clade A, read-out: IC50) was 0.3 nM, the IC50 (Human immunodeficiency virus 1, TZM-bl, BJOX002000.03.2, clade BC, read-out: IC50) was 0.2 nM and the IC50 (Human immunodeficiency virus 1, TZM-bl, BJOX009000.02.4, clade AE, read-out: IC50) was 105 nM. For the same molecule, the IC50 (Human immunodeficiency virus 1, TZM-bl, BJOX010000.06.2, clade AE, read-out: IC50) was 1660 nM, the IC50 (Human immunodeficiency virus 1, TZM-bl, BJOX025000.01.1, clade AE, read-out: IC50) was 178 nM and the IC50 (Human immunodeficiency virus 1, TZM-bl, BJOX028000.10.3 (Clade AE), read-out: IC50) was 236 nM. For the same molecule, the IC50 (Human immunodeficiency virus 1, TZM-bl, BL01.DG (Clade B), read-out: IC50) was 2960 nM, the IC50 (Human immunodeficiency virus 1, TZM-bl, BR07.DG, clade B, read-out: IC50) was 641 nM and the IC50 (Human immunodeficiency virus 1, TZM-bl, BR025.9, clade C, read-out: IC50) was 880 nM. For the same molecule, the IC50 (Human immunodeficiency virus 1, TZM-bl, BS208.B1, clade A, read-out: IC50) was 0.3 nM, the IC50 (Human immunodeficiency virus 1, TZM-bl, BX08.16, clade B, read-out: IC50) was 0.1 nM and the IC50 (Human immunodeficiency virus 1, TZM-bl, C1080.c3, clade AE, read-out: IC50) was 5380 nM. It also gave an IC50 (Human immunodeficiency virus 1, TZM-bl, C2101.c1, clade AE, read-out: IC50) of 1470 nM, an IC50 (Human immunodeficiency virus 1, TZM-bl, C3347.c11, clade AE, read-out: IC50) of 452 nM and an IC50 (Human immunodeficiency virus 1, TZM-bl, C4118.09 (Clade AE), read-out: IC50) of 59 nM. It also gave an IC50 (Human immunodeficiency virus 1, TZM-bl, CAAN.A2, clade B, read-out: IC50) of 0.1 nM, an IC50 (Human immunodeficiency virus 1, TZM-bl, CAP45.G3, clade C, read-out: IC50) of 4 nM and an IC50 (Human immunodeficiency virus 1, TZM-bl, CAP210.E8 (Clade C), read-out: IC50) of 14 nM. It also gave an IC50 (Human immunodeficiency virus 1, TZM-bl, CAP244.D3, clade C, read-out: IC50) of 0.1 nM, an IC50 (Human immunodeficiency virus 1, TZM-bl, CE703010217.B6, clade C, read-out: IC50) of 0.1 nM and an IC50 (Human immunodeficiency virus 1, TZM-bl, CH038.12, clade BC, read-out: IC50) of 92 nM. The IC50 (Human immunodeficiency virus 1, TZM-bl, CH070.1, clade BC, read-out: IC50) was 0.8 nM, the IC50 (Human immunodeficiency virus 1, TZM-bl, CH117.4, clade BC, read-out: IC50) was 0.4 nM and the IC50 (Human immunodeficiency virus 1, TZM-bl, CH119.10 (Clade BC), read-out: IC50) was 0.1 nM. For the same molecule, the IC50 (Human immunodeficiency virus 1, TZM-bl, CH181.12, clade BC, read-out: IC50) was 0.1 nM, the IC50 (Human immunodeficiency virus 1, TZM-bl, CM244.ec1, clade AE, read-out: IC50) was 260 nM and the IC50 (Human immunodeficiency virus 1, TZM-bl, CNE3, clade AE, read-out: IC50) was 61 nM. For the same molecule, the IC50 (Human immunodeficiency virus 1, TZM-bl, CNE4, clade B, read-out: IC50) was 4730 nM.
